# Measurements from publication PMC12430443, “Discovery of Novel Benzamide-Based Sigma-1 Receptor Agonists with Enhanced Selectivity and Safety” (Molecules, 2025).
# Where two headings read alike, the source gives them in different places.
# Tests used:
# [1] = Solubility, shake-flask method, HPLC-UV/VIS; type: physicochemical; conditions: thermodynamic from solid, n = 2
# Method: Solubility and stability remained unchanged in simulated gastric fluid (SGF) and simulated intestinal fluid (SIF), which mimic gastrointestinal digestion. Intestinal permeability was assessed using a two-chamber system with apical (A, pH 6.5) and basolateral (B, pH 7.4) compartments, representing the luminal and blood/mesenteric lymph sides of the gastrointestinal tract, respectively. […] The efflux ratios for both compounds ranged between 1 and 2, indicating improved permeability relative to the reference compound 1.
# (§1) Standardized in vitro ADME experiments were performed by Eurofins Cerep (Poitiers, France). Solubility assays were performed in PBS at pH 7.4, but also in simulated gastric fluid (SGF) and intestinal fluid (SIF), through the classical shake-flask method described by Lipinski et al., using HPLC-UV/VIS technology. The results were expressed in µM. The compound was classically evaluated at 10 µM for all of the ADME analyses. Bidirectional permeability (apical A to basolateral B pH 6.5/7.4, and basolateral B to apical A pH 7.4/6.5) was assessed in the epithelial colorectal adenocarcinoma cell line (Caco-2 cell line). The results were expressed as ×10^−6 cm/s (Papp) and as % recovery. The efflux ratio, i.e., Papp (B→A)/Papp(A→B), was calculated. Plasma protein binding was analyzed by HPLC-MS/MS after 4 h of incubation at 37 °C, as described by Banker et al.. Concentration was evaluated by LC/MS-MS. CYP inhibition was performed in human liver microsomes as described in [28]. Analysis of the respective metabolites was performed by HPLC-MS/MS. Transporter inhibition analysis was also performed in overexpressing cell lines. Respective metabolites for each specific transporter substrate were analyzed by fluorometry or scintillation counting, and % inhibition of control values were calculated. P-glycoprotein transporter substrate assessment was performed by bidirectional permeability analysis (apical A to basolateral B pH 7.4/7.4, and basolateral B to apical A pH 7.4/7.4) in the Caco-2 cell line with and without verapamil, as described in [26]. The results were expressed as ×10^−6 cm/s (Papp) and as % recovery. The efflux ratio was calculated as Papp(B→A)/Papp(A→B). CYP450 induction was assessed in human hepatocytes by measuring the mRNA levels of seven CYP isoforms via qPCR, as described in [40]. The compound was tested at 1, 10, and 100 μM, and fold-induction values were compared with predefined cut-off thresholds for each isoform and hepatocyte lot.
# ABST = ABST (Homo sapiens, UniProt Q12908); assay: Transporter inhibition in overexpressing cell lines; type: in vitro ADME; conditions: SLC family, n = 2, read-out: Drug transport inhibition ABST
# ABST, sequence (Q12908 whole entry, canonical isoform): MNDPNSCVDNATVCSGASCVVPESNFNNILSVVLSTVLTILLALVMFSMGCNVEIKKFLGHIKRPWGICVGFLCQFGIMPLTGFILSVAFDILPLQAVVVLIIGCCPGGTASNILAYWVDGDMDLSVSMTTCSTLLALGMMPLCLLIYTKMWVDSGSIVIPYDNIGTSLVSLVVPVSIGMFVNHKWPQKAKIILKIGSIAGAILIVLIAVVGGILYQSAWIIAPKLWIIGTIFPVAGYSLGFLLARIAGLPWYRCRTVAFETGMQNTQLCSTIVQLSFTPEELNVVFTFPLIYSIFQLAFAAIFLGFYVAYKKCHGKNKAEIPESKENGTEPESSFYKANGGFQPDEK
# Method: (§2) Microsomal stability was evaluated using human liver microsomes at 10 µM (Table 3). […] Since cytochrome P450 (CYP) enzymes—especially families 1 to 3—play major roles in drug metabolism, CYP inhibition was tested against the human isoforms CYP1A, 2B6, 2C8, 2C9, 2C19, 2D6, and 3A, as recommended by FDA and EMA guidelines. […] Membrane transport proteins, including the ATP-binding cassette (ABC) and solute carrier (SLC) families, affect drug pharmacokinetics and potential drug–drug interactions. The inhibitory effects of compounds 2 and 6 were assessed against five ABC transporters (P-gp, BCRP, MRP1, MRP2, and MRP3) and seven SLC transporters (OAT1, OAT3, OATP1B1, OCT1, OCT2, ASBT, and NTCP).
# as §1
# BCRP = BCRP (Homo sapiens, UniProt Q9UNQ0); assay: as above; type: in vitro ADME; conditions: ABC family, n = 2, read-out: Drug transport inhibition BCRP
# BCRP, sequence (Q9UNQ0 whole entry): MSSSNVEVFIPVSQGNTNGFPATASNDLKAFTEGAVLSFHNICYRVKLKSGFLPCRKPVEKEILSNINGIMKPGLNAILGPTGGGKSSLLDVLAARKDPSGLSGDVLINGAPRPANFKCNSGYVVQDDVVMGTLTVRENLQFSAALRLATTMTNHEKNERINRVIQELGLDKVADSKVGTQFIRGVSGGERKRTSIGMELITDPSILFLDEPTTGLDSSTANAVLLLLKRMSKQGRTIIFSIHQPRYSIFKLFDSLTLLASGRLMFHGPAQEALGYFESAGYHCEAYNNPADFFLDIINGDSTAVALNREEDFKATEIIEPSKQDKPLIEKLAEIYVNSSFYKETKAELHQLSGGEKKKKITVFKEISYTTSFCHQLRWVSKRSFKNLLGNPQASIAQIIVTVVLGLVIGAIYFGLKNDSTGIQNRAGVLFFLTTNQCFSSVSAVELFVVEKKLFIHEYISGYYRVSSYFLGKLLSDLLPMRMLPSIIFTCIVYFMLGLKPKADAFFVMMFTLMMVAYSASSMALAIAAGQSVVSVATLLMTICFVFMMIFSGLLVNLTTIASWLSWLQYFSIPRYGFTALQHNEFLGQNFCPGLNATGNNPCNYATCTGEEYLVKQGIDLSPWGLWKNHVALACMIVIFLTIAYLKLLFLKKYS
# Method: as §2, §1
# MRP1 = MRP1 (Homo sapiens, UniProt P33527); assay: as above; type: in vitro ADME; conditions: ABC family, n = 2, read-out: Drug transport inhibition MRP1
# Method: as §2, §1
# MRP2 = MRP2 (Homo sapiens, UniProt Q92887); assay: as above; type: in vitro ADME; conditions: ABC family, n = 2, read-out: Drug transport inhibition MRP2
# Method: as §2, §1
# MRP3 = MRP3 (Homo sapiens, UniProt O15438); assay: as above; type: in vitro ADME; conditions: ABC family, n = 2, read-out: Drug transport inhibition MRP3
# Method: as §2, §1
# NTCP = NTCP (Homo sapiens, UniProt Q14973); assay: as above; type: in vitro ADME; conditions: SLC family, n = 2, read-out: Drug transport inhibition NTCP
# NTCP, sequence (Q14973 whole entry): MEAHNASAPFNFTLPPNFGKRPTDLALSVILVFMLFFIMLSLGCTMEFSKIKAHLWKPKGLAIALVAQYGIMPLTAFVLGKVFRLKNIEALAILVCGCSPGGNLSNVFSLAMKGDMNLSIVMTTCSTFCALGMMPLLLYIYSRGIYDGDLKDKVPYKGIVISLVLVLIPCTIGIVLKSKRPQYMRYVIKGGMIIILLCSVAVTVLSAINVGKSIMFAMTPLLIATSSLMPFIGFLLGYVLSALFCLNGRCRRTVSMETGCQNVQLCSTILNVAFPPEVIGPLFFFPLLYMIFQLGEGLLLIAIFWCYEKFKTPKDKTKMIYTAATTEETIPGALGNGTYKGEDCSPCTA
# Method: as §2, §1
# OAT1 = OAT1 (Homo sapiens, UniProt Q4U2R8); assay: as above; type: in vitro ADME; conditions: SLC family, n = 2, read-out: Drug transport inhibition OAT1
# OAT1, sequence (Q4U2R8 whole entry): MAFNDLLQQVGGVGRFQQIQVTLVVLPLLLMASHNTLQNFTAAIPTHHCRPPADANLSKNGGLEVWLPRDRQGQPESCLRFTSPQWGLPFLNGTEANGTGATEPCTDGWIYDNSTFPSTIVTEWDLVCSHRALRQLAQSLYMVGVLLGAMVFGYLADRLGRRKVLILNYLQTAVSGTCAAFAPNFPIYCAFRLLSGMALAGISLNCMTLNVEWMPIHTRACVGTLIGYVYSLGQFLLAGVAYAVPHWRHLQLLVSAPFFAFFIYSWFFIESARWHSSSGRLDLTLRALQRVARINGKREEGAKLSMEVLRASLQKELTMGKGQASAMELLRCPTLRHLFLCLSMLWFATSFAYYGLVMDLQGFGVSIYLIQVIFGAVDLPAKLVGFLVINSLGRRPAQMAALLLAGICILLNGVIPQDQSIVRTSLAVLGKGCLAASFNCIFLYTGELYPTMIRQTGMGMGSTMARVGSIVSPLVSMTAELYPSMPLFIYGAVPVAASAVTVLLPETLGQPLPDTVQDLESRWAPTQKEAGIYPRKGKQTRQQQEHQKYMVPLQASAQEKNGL
# Method: as §2, §1
# OAT3 = OAT3 (Homo sapiens, UniProt Q8TCC7); assay: as above; type: in vitro ADME; conditions: SLC family, n = 2, read-out: Drug transport inhibition OAT3
# OAT3, sequence (Q8TCC7 whole entry): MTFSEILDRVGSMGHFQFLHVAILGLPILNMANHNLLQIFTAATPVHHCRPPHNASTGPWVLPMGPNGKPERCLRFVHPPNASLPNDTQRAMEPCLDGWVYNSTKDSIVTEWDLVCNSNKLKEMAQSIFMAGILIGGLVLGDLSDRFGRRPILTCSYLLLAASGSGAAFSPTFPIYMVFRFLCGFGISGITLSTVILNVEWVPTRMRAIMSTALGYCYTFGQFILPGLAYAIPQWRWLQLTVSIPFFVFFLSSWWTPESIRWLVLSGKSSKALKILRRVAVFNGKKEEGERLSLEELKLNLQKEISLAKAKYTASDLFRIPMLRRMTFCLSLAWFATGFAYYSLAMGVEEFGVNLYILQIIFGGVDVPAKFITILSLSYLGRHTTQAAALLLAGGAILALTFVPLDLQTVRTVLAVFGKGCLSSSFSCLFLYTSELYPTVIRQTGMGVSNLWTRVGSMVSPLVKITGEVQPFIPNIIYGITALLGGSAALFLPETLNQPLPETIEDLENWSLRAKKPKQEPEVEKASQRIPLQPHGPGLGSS
# Method: as §2, §1
# OATP1B1 = OATP1B1 (Homo sapiens, UniProt Q9Y6L6); assay: as above; type: in vitro ADME; conditions: SLC family, n = 2, read-out: Drug transport inhibition OATP1B1
# OATP1B1, sequence (Q9Y6L6 whole entry): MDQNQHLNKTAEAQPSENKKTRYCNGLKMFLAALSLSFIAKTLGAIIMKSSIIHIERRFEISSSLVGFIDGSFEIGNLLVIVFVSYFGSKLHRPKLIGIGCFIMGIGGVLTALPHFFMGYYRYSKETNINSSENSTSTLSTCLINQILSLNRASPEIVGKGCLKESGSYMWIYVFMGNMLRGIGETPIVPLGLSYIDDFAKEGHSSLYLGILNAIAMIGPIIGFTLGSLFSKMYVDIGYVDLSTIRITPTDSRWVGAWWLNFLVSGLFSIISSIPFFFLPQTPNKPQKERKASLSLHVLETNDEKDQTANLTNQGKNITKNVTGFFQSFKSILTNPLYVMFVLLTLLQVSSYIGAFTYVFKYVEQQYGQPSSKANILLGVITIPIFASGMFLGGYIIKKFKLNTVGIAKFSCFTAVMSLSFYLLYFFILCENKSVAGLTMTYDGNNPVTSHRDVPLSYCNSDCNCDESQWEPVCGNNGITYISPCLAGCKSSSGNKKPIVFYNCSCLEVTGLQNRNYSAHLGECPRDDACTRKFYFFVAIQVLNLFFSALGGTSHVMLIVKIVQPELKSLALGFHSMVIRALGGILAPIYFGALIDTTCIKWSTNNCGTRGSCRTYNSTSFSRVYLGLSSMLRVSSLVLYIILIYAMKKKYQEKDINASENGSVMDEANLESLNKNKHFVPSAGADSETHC
# Method: as §2, §1
# OCT1 = OCT1 (Homo sapiens, UniProt O15245); assay: as above; type: in vitro ADME; conditions: SLC family, n = 2, read-out: Drug transport inhibition OCT1
# Method: as §2, §1
# OCT2 = OCT2 (Homo sapiens, UniProt O15244); assay: as above; type: in vitro ADME; conditions: SLC family, n = 2, read-out: Drug transport inhibition OCT2
# OCT2, sequence (O15244 whole entry): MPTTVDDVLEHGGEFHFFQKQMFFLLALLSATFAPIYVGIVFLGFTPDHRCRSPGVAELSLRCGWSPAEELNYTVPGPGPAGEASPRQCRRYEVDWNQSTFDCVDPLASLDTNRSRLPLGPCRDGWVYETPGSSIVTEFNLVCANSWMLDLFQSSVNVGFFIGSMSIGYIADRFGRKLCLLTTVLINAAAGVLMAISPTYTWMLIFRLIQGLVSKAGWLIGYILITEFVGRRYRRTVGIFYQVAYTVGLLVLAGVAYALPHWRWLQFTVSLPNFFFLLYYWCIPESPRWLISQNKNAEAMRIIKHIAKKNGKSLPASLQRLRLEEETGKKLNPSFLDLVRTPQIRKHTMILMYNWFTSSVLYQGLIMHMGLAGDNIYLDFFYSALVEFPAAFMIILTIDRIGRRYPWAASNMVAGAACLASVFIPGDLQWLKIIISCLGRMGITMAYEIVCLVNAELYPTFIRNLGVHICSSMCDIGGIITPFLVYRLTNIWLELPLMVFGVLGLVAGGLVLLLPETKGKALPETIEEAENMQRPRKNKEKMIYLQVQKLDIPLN
# Method: as §2, §1
# P-gp = P-gp (Homo sapiens, UniProt P08183); assay: as above; type: in vitro ADME; conditions: ABC family, n = 2, read-out: Drug transport inhibition P-gp
# P-gp, sequence (P08183 whole entry): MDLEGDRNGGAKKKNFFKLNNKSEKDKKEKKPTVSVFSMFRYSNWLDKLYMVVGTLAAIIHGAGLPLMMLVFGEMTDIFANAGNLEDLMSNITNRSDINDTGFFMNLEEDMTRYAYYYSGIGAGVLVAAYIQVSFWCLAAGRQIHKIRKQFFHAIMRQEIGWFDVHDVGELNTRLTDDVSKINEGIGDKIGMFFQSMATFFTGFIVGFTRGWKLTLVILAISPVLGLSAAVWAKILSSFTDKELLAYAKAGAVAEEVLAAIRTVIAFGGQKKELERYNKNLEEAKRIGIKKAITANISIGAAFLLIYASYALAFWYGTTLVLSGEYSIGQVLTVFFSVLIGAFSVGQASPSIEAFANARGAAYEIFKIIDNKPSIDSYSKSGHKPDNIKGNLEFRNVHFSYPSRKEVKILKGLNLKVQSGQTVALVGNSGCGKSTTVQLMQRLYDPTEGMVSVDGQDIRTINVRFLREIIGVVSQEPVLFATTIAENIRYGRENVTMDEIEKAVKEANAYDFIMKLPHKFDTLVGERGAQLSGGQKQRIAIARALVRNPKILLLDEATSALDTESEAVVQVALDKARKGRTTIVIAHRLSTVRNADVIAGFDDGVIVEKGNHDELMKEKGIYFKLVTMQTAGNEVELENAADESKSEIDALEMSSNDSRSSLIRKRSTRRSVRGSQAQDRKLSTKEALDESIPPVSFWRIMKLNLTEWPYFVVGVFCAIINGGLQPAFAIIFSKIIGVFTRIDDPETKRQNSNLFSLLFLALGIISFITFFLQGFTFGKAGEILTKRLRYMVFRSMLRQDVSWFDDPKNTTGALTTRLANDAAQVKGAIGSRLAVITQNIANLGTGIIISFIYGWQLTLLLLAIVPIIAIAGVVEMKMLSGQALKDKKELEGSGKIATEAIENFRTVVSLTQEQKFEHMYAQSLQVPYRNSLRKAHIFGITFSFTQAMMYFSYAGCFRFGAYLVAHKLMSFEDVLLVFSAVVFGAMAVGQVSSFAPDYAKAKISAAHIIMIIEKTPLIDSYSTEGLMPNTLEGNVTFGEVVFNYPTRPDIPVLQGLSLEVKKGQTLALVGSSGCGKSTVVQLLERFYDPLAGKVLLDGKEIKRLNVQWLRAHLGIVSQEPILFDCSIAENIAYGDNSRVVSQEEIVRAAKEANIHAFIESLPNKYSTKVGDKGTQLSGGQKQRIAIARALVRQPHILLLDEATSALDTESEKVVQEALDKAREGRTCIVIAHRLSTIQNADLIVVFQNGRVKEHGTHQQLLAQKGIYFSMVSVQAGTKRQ
# Method: as §2, §1
# [2] = aqueous buffer, PBS pH 7.4, read-out: Solubility PBSpH7.4
# [3] = simulated gastric fluid (SGF), simulated gastric fluid, read-out: Solubility SGF
# [4] = simulated intestinal fluid (SIF), fassgf or other biorelevant, simulated intestinal fluid, read-out: Solubility SIF
Structure (SMILES),"solubility [1, 2]","solubility [1, 3]","solubility [1, 4]",inhibition at 10 µM (ABST),inhibition at 10 µM (BCRP),inhibition at 10 µM (MRP1),inhibition at 10 µM (MRP2),inhibition at 10 µM (MRP3),inhibition at 10 µM (NTCP),inhibition at 10 µM (OAT1),inhibition at 10 µM (OAT3),inhibition at 10 µM (OATP1B1),inhibition at 10 µM (OCT1),inhibition at 10 µM (OCT2),inhibition at 10 µM (P-gp)
"CN(CCC(=O)NCc1cccc(Cl)c1)Cc1ccccc1 [Compound 2, 3-(Benzylmethylamino)-N-(3-chlorobenzyl)propanamide]",167 µM,186 µM,181 µM,21.8%,-9%,-0.3%,5.6%,0.7%,8.7%,-23.1%,33.3%,3.9%,19.9%,54.1%,4.7%
"CN(CCC(=O)NCc1ccc(C#N)cc1)Cc1ccccc1 [Compound 6, 3-(Benzylmethylamino)-N-(4-cyanobenzyl)propanamide]",190 µM,178 µM,190 µM,-8.9%,-5.8%,-1.1%,3.3%,0.4%,-12.5%,-25.8%,27.8%,1.3%,2.4%,59.3%,4.7%
